Laboratory results: PubChem BioAssay (NCI)
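96-well plates; 48 h exposure; 5 concentrations. Endpoints by linear interpolation between flanking doses. Not reached: highest tested concentration assigned. Abbreviation: GI50, concentration required for 50% inhibition of growth. TGI denotes the concentration required for complete inhibition of growth.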

Experiments:
Assay in all cases: NCI anticancer screen, dose series, 48 h
[1] = test system: MCF7 breast
[2] = test system: HCT-116 colon
[3] = test system: SK-MEL-2 melanoma
[4] = test system: SNB-19 CNS
[5] = test system: NCI-H522 lung
[6] = test system: OVCAR-8 ovarian
[7] = test system: A498 renal
[8] = test system: 786-0 renal
[9] = test system: SW-620 colon
[10] = test system: OVCAR-5 ovarian
[11] = test system: SF-295 CNS
[12] = test system: RPMI-8226 leukemia
[13] = test system: NCI-H460 lung
[14] = test system: HL-60(TB) leukemia
[15] = test system: MALME-3M melanoma
[16] = test system: PC-3 prostate
[17] = test system: HS 578T breast
[18] = test system: OVCAR-3 ovarian
[19] = test system: TK-10 renal
[20] = test system: KM12 colon
[21] = test system: UACC-62 melanoma
[22] = test system: SF-539 CNS
[23] = test system: ACHN renal
[24] = test system: NCI/ADR-RES ovarian
[25] = test system: HCC-2998 colon
[26] = test system: MDA-MB-231 breast
[27] = test system: DU-145 prostate
[28] = test system: MDA-MB-435
[29] = test system: SK-OV-3 ovarian
[30] = test system: UO-31 renal
[31] = test system: HCT-15 colon
[32] = test system: MOLT-4 leukemia
[33] = test system: A549 NSCLC
[34] = test system: K-562 leukemia
[35] = test system: IGROV1 ovarian
[36] = test system: LOX IMVI melanoma
[37] = test system: CAKI-1 renal
[38] = test system: COLO 205 colon
[39] = test system: HOP-62 NSCLC
[40] = test system: OVCAR-4 ovarian
[41] = test system: BT-549 breast
[42] = test system: RXF 393 renal
[43] = test system: HOP-92 NSCLC
[44] = test system: U251 CNS
[45] = test system: SN12C renal
[46] = test system: SR leukemia
[47] = test system: NCI-H23 lung
[48] = test system: SK-MEL-5 melanoma
[49] = test system: NCI-H226 lung
[50] = test system: UACC-257 melanoma
[51] = test system: T-47D breast
[52] = test system: SF-268 CNS
[53] = test system: EKVX NSCLC
[54] = test system: CCRF-CEM leukemia
[55] = test system: SK-MEL-28 melanoma
[56] = test system: SNB-75 CNS
[57] = test system: HT29 colon

Work on CCC(=C(c1ccc(OCCN(C)C)cc1)c1ccc(OCCN(C)C)cc1)c1ccc(Cl)cc1 yielded a GI50 [1] of 0.522 µM, a TGI [1] of 1.67 µM and a GI50 [2] of 2.58 µM. For the same molecule, the TGI [2] was 6.24 µM, the GI50 [3] was 4.48 µM and the TGI [3] was 8.49 µM. For the same molecule, the GI50 [4] was 2.84 µM, the TGI [4] was 6.29 µM and the GI50 [5] was 1.96 µM. The TGI [5] was 5.77 µM, the GI50 [6] was 3.21 µM and the TGI [6] was 6.96 µM. For the same molecule, the GI50 [7] was 3.58 µM, the TGI [7] was 7.07 µM and the GI50 [8] was 3.7 µM. The TGI [8] was 7.72 µM, the GI50 [9] was 0.549 µM and the TGI [9] was 1.22 µM. For the same molecule, the GI50 [10] was 3.91 µM, the TGI [10] was 7.56 µM and the GI50 [11] was 3.09 µM. For the same molecule, the TGI [11] was 6.49 µM, the GI50 [12] was 0.598 µM and the TGI [12] was 1.46 µM. For the same molecule, the GI50 [13] was 2.67 µM, the TGI [13] was 6.03 µM and the GI50 [14] was 0.522 µM. The TGI [14] was 1.23 µM, the GI50 [15] was 0.855 µM and the TGI [15] was 3.3 µM. The GI50 [16] was 1.26 µM, the TGI [16] was 4.56 µM and the GI50 [17] was 3.48 µM. For the same molecule, the TGI [17] was 7.79 µM, the GI50 [18] was 0.804 µM and the TGI [18] was 2.74 µM. The GI50 [19] was 4.05 µM, the TGI [19] was 7.75 µM and the GI50 [20] was 2.54 µM. It also gave a TGI [20] of 5.67 µM, a GI50 [21] of 0.492 µM and a TGI [21] of 1.12 µM. The GI50 [22] was 2.75 µM, the TGI [22] was 6.1 µM and the GI50 [23] was 1.31 µM. For the same molecule, the TGI [23] was 4.33 µM, the GI50 [24] was 3.22 µM and the TGI [24] was 6.68 µM. It also gave a GI50 [25] of 2.04 µM, a TGI [25] of 5.73 µM and a GI50 [26] of 2.42 µM. The TGI [26] was 5.75 µM, the GI50 [27] was 3.11 µM and the TGI [27] was 6.67 µM. It also gave a GI50 [28] of 0.575 µM, a TGI [28] of 1.41 µM and a GI50 [29] of 4.26 µM. It also gave a TGI [29] of 8.08 µM, a GI50 [30] of 3.23 µM and a TGI [30] of 6.6 µM. For the same molecule, the GI50 [31] was 0.77 µM, the TGI [31] was 2.67 µM and the GI50 [32] was 0.745 µM. It also gave a TGI [32] of 2.41 µM, a GI50 [33] of 2.56 µM and a TGI [33] of 6.32 µM. For the same molecule, the GI50 [34] was 0.541 µM, the TGI [34] was 1.77 µM and the GI50 [35] was 2.17 µM. The TGI [35] was 5.6 µM, the GI50 [36] was 0.43 µM and the TGI [36] was 0.848 µM. For the same molecule, the GI50 [37] was 3.17 µM, the TGI [37] was 6.48 µM and the GI50 [38] was 1.14 µM. The TGI [38] was 4.77 µM, the GI50 [39] was 3.67 µM and the TGI [39] was 7.95 µM. The GI50 [40] was 3.39 µM, the TGI [40] was 7.36 µM and the GI50 [41] was 4.29 µM. It also gave a TGI [41] of 8.38 µM, a GI50 [42] of 0.897 µM and a TGI [42] of 4.15 µM. The GI50 [43] was 0.736 µM, the TGI [43] was 4.01 µM and the GI50 [44] was 0.67 µM. The TGI [44] was 2.29 µM, the GI50 [45] was 3.76 µM and the TGI [45] was 7.52 µM. The GI50 [46] was 0.659 µM, the TGI [46] was 4.74 µM and the GI50 [47] was 3.65 µM. For the same molecule, the TGI [47] was 7.26 µM, the GI50 [48] was 3.99 µM and the TGI [48] was 7.49 µM. For the same molecule, the GI50 [49] was 4.12 µM, the TGI [49] was 8.41 µM and the GI50 [50] was 3.7 µM. The TGI [50] was 7.39 µM, the GI50 [51] was 3.17 µM and the TGI [51] was 8.03 µM. The GI50 [52] was 3.54 µM, the TGI [52] was 7.48 µM and the GI50 [53] was 3.85 µM. The TGI [53] was 7.67 µM, the GI50 [54] was 0.609 µM and the TGI [54] was 1.79 µM. It also gave a GI50 [55] of 0.462 µM, a TGI [55] of 0.888 µM and a GI50 [56] of 3.32 µM. It also gave a TGI [56] of 7.53 µM, a GI50 [57] of 0.427 µM and a TGI [57] of 1.11 µM.
